From patent publication US20020006915A1, “Use of COX-2 inhibitors to treat sepsis, complications thereof, and EP receptor modulation” (priority 2000, published 2002)
Entries after “also recorded” stand apart in the source; their conditions may differ.

Legend:
[1] = system: LPS stimulated splenic macrophages; experiment: Mediator production (PGE2, IL-6, TNF-α, NO) by stimulated splenic macrophages 7 days after injury, 3 in vivo doses of NS-398 within 24 h; set-up: species or system BALB/c mice
Description: Vehicle mice were injected with a 4% DMSO solution.
Spleens were collected aseptically and placed in separate petri dishes containing cold (4° C.) Hanks Balanced Salt Solution without calcium and magnesium (Gibco BRL, Life Technologies Inc, Grand Island, N.Y.). Splenocytes were isolated by gentle mechanical disruption of the spleen with filtration through a nylon mesh (Spectrum, Laguna Hills, Calif.). The suspension was centrifuged for 7 minutes, at 500 g and 4° C. After resuspension, erythrocytes were lysed with an ammonium chloride solution for 4 minutes and the lysate was centrifuged as previously described. The remaining pellet was resuspended in complete RPMI-1640 (Gibco BRL, Life Technologies Inc), containing 1% antibiotic/antimycotic solution and 10% heat-inactivated fetal bovine serum (Gibco BRL, Life Technologies Inc), counted and diluted to a final cell concentration of 5×10^6 cells/ml and plated. After allowing macrophages to adhere for 2 hours, the remaining cells were suctioned off and macrophages were incubated with 10 ng/ml LPS 055:B5 (Sigma, St. Louis, Mo.) for PGE2, IL-6 and TNFα determination, or (10 ng/ml LPS+100 U/ml recombinant mouse IFN-γ (Pharmingen, San Diego, Calif.) for NO2^− determination. Cells were incubated at 37° C. in a 5% CO2 atmosphere, and supernatants harvested at 24 hours and frozen at −70° C. for determination of prostaglandin, cytokine and NO production.
NO2^− was measured indirectly by determination of NO2^− concentration using the Greiss reagent system (Promega, Madison, Wis.). The BCA protein assay (Pierce, Rockford, Ill.) was used to quantify protein and all measurements were normalized to protein content per well.
Balb/c mice (n=8/group) were given 3 intraperitoneal injections of 10 mg/kg NS398; immediately following injury, at 12 and 24 hours after sham injury or trauma (femur fracture and 40% blood volume hemorrhage). Sham+placebo (C); sham+NS398 (CN); trauma+placebo (T); or trauma+NS398 (TN) groups were studied. On day 7 after injury, mice were sacrificed and splenic macrophages evaluated for cytokine production and expression of COX-2 mRNA. In a separate study, mice (n=10-12/group) were treated in an identical fashion. After 7 days, cecal ligation and puncture was performed and animals followed for survival.

COX-2 mRNA = COX-2 mRNA expression in LPS stimulated splenic macrophages by RT-PCR (3 doses within 24 h); type: in vivo, BALB/c mice; conditions: traumatized mice + NS-398, 3 doses within 24 h, day 7
Description: Isolated splenic macrophages were treated with lipopolysaccharide (LPS) (10 ng/ml) for six hours.
To evaluate the relative expression of COX-2 mRNA, splenic macrophages were treated as previously described and harvested by RT-PCR.

[2] = system: LPS stimulated human PBMC's; experiment: PGE2, LTB4 and TNF-α production from LPS stimulated PBMC's co-incubated with NS-398; type: cell-based
Description: The study included 10 patients sustaining either long-bone fracture or ≧15% total body surface burn and 10 control subjects (protocol approved by the Weill Medical College of Cornell University Internal Research Board). Blood samples were obtained within 12 hours of fracture or burn injury. Immune compromised patients including those with cancer, collagen-vascular diseases, HIV or any recent history of steroid or NSAID drug use were excluded from this study. Each patient sample was run simultaneously with a control sample.
Peripheral venous blood samples were collected into two heparin-EDTA tubes and placed on ice. 6 mL of Histopaque (Sigma Chemical Co., St. Louis, Mo.) was layered into a conical 15 mL tube and 6 mL of undiluted whole blood was gently layered over the top. Tubes were then centrifuged at 1000 rpm for 30 minutes at room temperature. A sterile pasteur pipet was used to gently collect the layer of PBMC's which were then transferred to a new 15 mL tube. Samples were washed twice with 10 mL Ca^+2 and Mg^+2-free Hanks Buffered Salt Solution (Gibco BRL-Life Technologies, Grand Island, N.Y.) and centrifuged at 1100 rpm for 10 minutes. The supernatant was discarded and the pellet resuspended in complete RPMI-1640 (Gibco BRL-Life Technologies, Grand Island, N.Y.) with 10% heat inactivated fetal bovine serum (Gibco BRL-Life Technologies, Grand Island, N.Y.) and 1% antibiotic/antimycotic solution. Cells were then adjusted to a final concentration of 1×10^6 cells/mL and plated. Cells were incubated at 37° C. in a 5% CO2 atmosphere with supernatants harvested at 24 hours and frozen at −70° C. for determination of prostaglandin and cytokine production.
(§1) Serial dilutions were made to co-culture cells with a final concentration of […] NS-398 in a 0.1% DMSO. Control and trauma groups were co-cultured with 0.1% DMSO vehicle for comparisons with NS-398 treated groups.

EP2 receptor = EP2 receptor expression in LPS stimulated human PBMC's via RT-PCR; type: cell-based; conditions: PBMC's after injury, co-incubation with NS-398
Description: as §1

COX-2 = type: cell-based, human
Description: Isolated PBMC's from various groups were incubated for 18 hours at which time all groups were treated with 10 ng/mL lipopolysaccharaide (LPS) 055:B5 (Sigma, St. Louis, Mo.) for 6 hours RT-PCR samples were run in a blinded fashion. Extraction of mRNA was with an RNA extraction kit (Qiagen). Total mRNA (1 μg) was reverse transcribed in an RT mastermix (50 mM KCl, 10 mM tris-HCl, 5 mM MgCl2, 1 mM dNTP, 2.5 mM oligo d(T), 50 units of RT, 20 units of RNAse inhibitor, and nuclease free water; all reagents from Perkin-Elmer, Foster City, Calif.) with an initial 10 minute incubation at room temperature and then 42° C. for 10 minutes. […] The cDNA was run on a 1% agarose gel with 3 μL of ethidium bromide (10 mg/mL solution) and bands were visualized under UV transillumination and recorded in an image acquisition processing and analysis program (Eagle Eye 2, Stratagene).
NS-398 (N-[2-(cyclohexyloxy)-4-nitrophenyl]-methanesulfonamide) was obtained from Cayman Chemical (Ann Arbor, Mich.) and prepared in DMSO at a concentration of 1 mM. Serial dilutions were made to co-culture cells with a final concentration of 10 mM NS-398 in a 0.1% DMSO. […]
To further evaluate the expression of COX-2, samples of LPS stimulated PBMC's were evaluated from control and injured subjects as well as samples co-incubated with 10 μM NS-398.

[3] = T + NS, 3 i.p. injections of 10 mg/kg, splenic macrophages day 7

Which IL-6 [1, 3] does the source give for `CS(=O)(=O)Nc1ccc([N+](=O)[O-])cc1OC1CCCCC1` [NS-398, N-(2-cyclohexyloxy-4-nitrophenyl)methanesulfonamide] here?
Its IL-6 is 5.4 ± 0.9 pg/μg protein.

And the NO [1, 3]?
Its NO is 8 ± 4 nmol/μgprot.

What about the TNF-α [1, 3] of the same compound?
The TNF-α was 2.0 ± 0.5.

And the PGE2 ([1]; T + NS, 3 i.p. injections of 10 mg/kg, splenic macrophages day 7, n=8)?
Its PGE2 is 71 ± 14.

And the PGE2 production from LPS stimulated splenic macrophages ([1]; control mice treated with NS-398 (CN), 7 days)?
Its PGE2 production from LPS stimulated splenic macrophages is 87 ± 10 pg/µg protein.

And the “IL-6 level, splenic macrophages” value ([1]; injured mice + NS-398, 7 days)?
The value was 5.4 ± 0.3 pg/µg.

What about the “nitrite levels, LPS+IFN-γ stimulated splenic macrophages” value ([1]; injured mice + NS-398, 7 days) of the same compound?
The value was 0.007 ± 0.004 nmol/µg.

What about the “TNF-α production, splenic macrophages” value ([1]; trauma + NS-398 (TN), 7 days following trauma) of the same compound?
Its value is 2.0 ± 0.2 pg/µL.

And the “PGE2 production from LPS stimulated splenic macrophages” value ([1]; trauma+NS-398 mice, 7 days following injury, treatment for 24 hours post-injury, ±SEM)?
Its value is 71 ± 5 pg/µg.

And the “COX-2 mRNA levels relative to GAPDH” value (COX-2 mRNA)?
The value was “attenuated the levels of COX-2 mRNA to below control levels”.

And the “COX-2 mRNA levels relative to GAPDH” value (COX-2 mRNA; listed as NS398)?
The value was “significant decreases”.

And the TNF-α production ([2]; PBMC's after injury, co-culture with NS-398, P<0.05)?
Its TNF-α production is “significantly decreased production”.

And the PGE2 production ([2]; PBMC's of injured patients, co-culture with 10μM NS-398, T vs TN P<0.001)?
Its PGE2 production is “significantly reduced the production of PGE2”.

And the LTB4 production ([2]; control cells, co-culture with NS-398, P<0.05)?
The LTB4 production was “significant increase in the production of LTB4”.

And the LTB4 production ([2]; trauma cells, co-culture with NS-398, P<0.004)?
The LTB4 production was “significant increase in the production of LTB4”.

What about the EP2 receptor expression (EP2 receptor) of the same compound?
The EP2 receptor expression was “returns to control levels; also recorded: restored”.

And the COX-2 expression (COX-2)?
Its COX-2 expression is “reduced COX-2 expression to levels similar to that expressed by control cells”.
